Here are results for 23 molecules from paper PMC9937012 (Journal of Enzyme Inhibition and Medicinal Chemistry, 2023).

Broadly, the inhibition is the relative decrease from the control value, in per cent. The IC50 is the concentration that inhibits the measured activity by half. Higher therefore signals weaker potency in that assay. A word on the Ki: it is the equilibrium dissociation constant of an inhibitor or competing ligand from its target. A high value points to a looser hold on the target.

In one assay the target is human H1R (Homo sapiens, UniProt P35367). Put plainly: Human H1R radioligand displacement assay. The class given is binding. To be noted: for inhibition at 10 µM: read-out: hH1R Inhibition at 10 µM [%] ±SD (n); for inhibition at 1 µM: read-out: hH1R Inhibition at 1 µM [%] (n). For orientation: In a radioligand displacement assay an active substance lowers the binding of a labelled ligand.
human H1R, sequence (P35367 whole entry): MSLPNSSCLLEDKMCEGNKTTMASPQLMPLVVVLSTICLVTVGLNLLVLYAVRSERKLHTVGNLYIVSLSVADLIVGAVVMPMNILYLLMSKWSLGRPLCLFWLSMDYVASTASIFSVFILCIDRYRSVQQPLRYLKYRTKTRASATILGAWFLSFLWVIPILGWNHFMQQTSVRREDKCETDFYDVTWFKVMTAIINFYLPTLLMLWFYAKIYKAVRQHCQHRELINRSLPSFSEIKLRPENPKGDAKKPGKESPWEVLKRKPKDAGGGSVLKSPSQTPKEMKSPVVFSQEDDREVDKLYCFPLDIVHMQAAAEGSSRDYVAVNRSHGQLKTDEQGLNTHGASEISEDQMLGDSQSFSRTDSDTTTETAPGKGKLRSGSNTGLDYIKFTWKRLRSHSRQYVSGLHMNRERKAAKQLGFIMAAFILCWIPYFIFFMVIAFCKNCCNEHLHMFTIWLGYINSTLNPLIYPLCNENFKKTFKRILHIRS

A further assay addresses human H3R (Homo sapiens, UniProt Q9Y5N1). Description: Human H3R radioligand displacement assay. As to conditions: for inhibition at 1 µM: read-out: hH3R Inhibition at 1 µM [%] ±SD (n).
The target of a further assay is human AChE (Homo sapiens, UniProt P22303). Put plainly: Inhibition of AChE. It counts as biochemical. As to conditions: for inhibition at 10 µM: read-out: AChE Inhibition at 10 µM [%].
human AChE, sequence (P22303 32-614): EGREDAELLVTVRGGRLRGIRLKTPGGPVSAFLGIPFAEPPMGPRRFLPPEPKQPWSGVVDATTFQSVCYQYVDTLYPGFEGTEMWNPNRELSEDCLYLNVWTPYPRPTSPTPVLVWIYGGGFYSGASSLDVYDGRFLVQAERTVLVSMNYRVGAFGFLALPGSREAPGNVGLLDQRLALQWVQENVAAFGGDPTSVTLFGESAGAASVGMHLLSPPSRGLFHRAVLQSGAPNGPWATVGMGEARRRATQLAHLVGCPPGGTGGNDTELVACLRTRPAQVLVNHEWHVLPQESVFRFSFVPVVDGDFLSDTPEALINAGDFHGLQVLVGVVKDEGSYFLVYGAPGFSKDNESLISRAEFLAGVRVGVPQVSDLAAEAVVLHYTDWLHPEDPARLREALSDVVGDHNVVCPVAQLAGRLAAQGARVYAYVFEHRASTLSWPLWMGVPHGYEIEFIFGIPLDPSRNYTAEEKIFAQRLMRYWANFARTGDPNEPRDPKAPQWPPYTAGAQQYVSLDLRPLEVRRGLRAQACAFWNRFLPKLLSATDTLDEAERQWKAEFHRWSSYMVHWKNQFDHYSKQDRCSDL
The next assay deals with human H4R (Homo sapiens, UniProt Q9H3N8). Description: Human H4R radioligand displacement assay. To be noted: read-out: hH4R Inhibition at 10 µM [%] (n).
human H4R, sequence (Q9H3N8 whole entry): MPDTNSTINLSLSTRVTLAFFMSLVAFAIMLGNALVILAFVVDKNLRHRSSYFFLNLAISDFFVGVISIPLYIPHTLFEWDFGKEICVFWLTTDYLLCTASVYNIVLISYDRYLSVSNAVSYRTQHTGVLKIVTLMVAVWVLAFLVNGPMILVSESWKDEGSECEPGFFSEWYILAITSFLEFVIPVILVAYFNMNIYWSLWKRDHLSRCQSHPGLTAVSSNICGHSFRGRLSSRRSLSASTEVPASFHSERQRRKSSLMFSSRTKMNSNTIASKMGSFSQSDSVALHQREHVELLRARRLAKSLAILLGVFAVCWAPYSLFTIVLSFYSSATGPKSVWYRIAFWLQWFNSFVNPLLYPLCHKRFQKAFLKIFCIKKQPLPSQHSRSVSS

human H3R, sequence (Q9Y5N1 whole entry): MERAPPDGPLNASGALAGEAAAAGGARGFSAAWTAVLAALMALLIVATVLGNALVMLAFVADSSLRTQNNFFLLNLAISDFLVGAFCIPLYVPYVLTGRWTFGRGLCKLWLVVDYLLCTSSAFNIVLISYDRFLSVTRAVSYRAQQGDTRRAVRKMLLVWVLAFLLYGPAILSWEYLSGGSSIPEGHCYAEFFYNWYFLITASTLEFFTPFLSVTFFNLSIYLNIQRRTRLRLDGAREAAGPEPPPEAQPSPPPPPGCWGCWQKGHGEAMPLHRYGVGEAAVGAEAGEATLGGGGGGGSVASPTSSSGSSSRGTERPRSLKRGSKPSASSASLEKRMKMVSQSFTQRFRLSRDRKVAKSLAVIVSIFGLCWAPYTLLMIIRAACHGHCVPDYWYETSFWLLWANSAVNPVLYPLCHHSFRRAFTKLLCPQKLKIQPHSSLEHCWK

In the case of `COC(=O)c1nc2ccc(OCCN3CCOCC3)cc2s1` [Compound 1d, Methyl 6-(2-morpholinoethoxy)benzo[d]thiazole-2-carboxylate], the inhibition at 10 µM at human H1R amounted to 11.2 ± 10.5%; on human AChE, 5.52 ± 6.39%; on human H4R, 51.3 ± 18.2%. For the same molecule, the inhibition at 1 µM on human H3R is 25.3 ± 5.4%. This molecule yielded an IC50 at human AChE greater than 10 µM.

With `CN1CCN(CCCOc2ccc3nc(C(=O)N4CCN(C)CC4)sc3c2)CC1` [Compound 4g, (4-Methylpiperazin-1-yl)(6-(3-(4-methylpiperazin-1-yl)propoxy)benzo[d]thiazol-2-yl)methanone], the inhibition at 1 µM on human H1R amounted to 4.8 ± 37.7%. Besides, on human H3R, the Ki is greater than 1 µM. Also, on human AChE, the IC50 is greater than 10 µM and the inhibition at 10 µM is 7.7 ± 1.87%.

In the case of `O=C(NC1CCCC1)c1nc2ccc(OCCCNC3CCCC3)cc2s1` [Compound 3i, N-Cyclopentyl-6-(3-(cyclopentylamino)propoxy)benzo[d]thiazole-2-carboxamide], the inhibition at 10 µM on human H1R was determined as 35.5 ± 9.8%; at human AChE it was 59 ± 6.16%; at human H4R it was 50.5 ± 13%. On human H3R, the inhibition at 1 µM was 51.2 ± 8.7%. Besides, the IC50 at human AChE stood at 7.31 ± 1.59 µM.

With `CCN1CCN(CCCOc2ccc3nc(C(=O)N4CCN(CC)CC4)sc3c2)CC1` [Compound 4f, (4-Ethylpiperazin-1-yl)(6-(3-(4-ethylpiperazin-1-yl)propoxy)benzo[d]thiazol-2-yl)methanone], the inhibition at 1 µM at human H1R is 3 ± 36%. At human H3R, this molecule yielded a Ki of 0.43 µM. On human AChE, the IC50 was greater than 10 µM and the inhibition at 10 µM came out at 8.2 ± 1.64%.

Turning to `O=C(NCc1ccccc1)c1nc2ccc(OCCCNCc3ccccc3)cc2s1` [Compound 4j, N-Benzyl-6-(3-(benzylamino)propoxy)benzo[d]thiazole-2-carboxamide], on human H1R, the inhibition at 1 µM was 27 ± 39.4%. For the same molecule, the Ki on human H3R came to 0.64 µM. For the same molecule, on human AChE, the IC50 was greater than 10 µM and the inhibition at 10 µM stood at 20.3 ± 3.55%.

Turning to `O=C(NC1CCCCCC1)c1nc2ccc(OCCCNC3CCCCCC3)cc2s1` [Compound 3e, N-Cycloheptyl-6-(3-(cycloheptylamino)propoxy)benzo[d]thiazole-2-carboxamide], the inhibition at 10 µM at human H1R was determined as 12.1 ± 18.3%; at human AChE it was 7.3 ± 2.31%; on human H4R it was 53.5 ± 15.2%. Also, the inhibition at 1 µM on human H3R came to 35.7 ± 11.5%. Also, the IC50 against human AChE is greater than 10 µM.

Turning to `O=C(NC1CCCCCC1)c1nc2ccc(OCCCCCNC3CCCCCC3)cc2s1` [Compound 3p, N-Cycloheptyl-6-((5-(cycloheptylamino)pentyl)oxy)benzo[d]thiazole-2-carboxamide], the inhibition at 10 µM on human H1R was found to be 17.5 ± 8.4%; on human AChE it was 9.5 ± 3.58%; at human H4R, 58.4 ± 8.3%. Besides, at human H3R, the inhibition at 1 µM was found to be 34 ± 7.5%. On human AChE, this molecule yielded an IC50 greater than 10 µM.

Take `CCOC(=O)c1nc2ccc(OCCN3CCOCC3)cc2s1` [Compound 1a, Ethyl 6-(2-morpholinoethoxy)benzo[d]thiazole-2-carboxylate]: the values for the inhibition at 10 µM at human H1R, at human AChE and at human H4R were less than 0%, 7.64 ± 7.33% and 39.2 ± 34.7%, respectively. On human H3R, the inhibition at 1 µM came out at 63.3 ± 4.2%. This molecule also displayed an IC50 on human AChE greater than 10 µM.

Consider `O=C(NC1CC1)c1nc2ccc(OCCCCCNC3CC3)cc2s1` [Compound 3r, N-Cyclopropyl-6-((5-(cyclopropylamino)pentyl)oxy)benzo[d]thiazole-2-carboxamide], for which the figures for the inhibition at 10 µM on human H1R, at human AChE and on human H4R were 23.7 ± 12.7%, 14.8 ± 6.73% and 51.6 ± 15.8%, respectively. Besides, on human H3R, the inhibition at 1 µM turned out to be 38.8 ± 9.7%. This molecule had an IC50 against human AChE greater than 10 µM.

Consider `O=C(NCC1CCCCC1)c1nc2ccc(OCCCNCC3CCCCC3)cc2s1` [Compound 3f, N-(Cyclohexylmethyl)-6-(3-((cyclohexylmethyl)amino)propoxy)benzo[d]thiazole-2-carboxamide], for which the inhibition at 10 µM at human H1R came to 47.6 ± 12.9%; on human AChE, 3.2 ± 3.69%; at human H4R it was 60.8 ± 30.4%. The inhibition at 1 µM at human H3R is 46.3 ± 14.7%. The IC50 against human AChE was greater than 10 µM.

Turning to `O=C(NCC1CCCCC1)c1nc2ccc(OCCCCNCC3CCCCC3)cc2s1` [Compound 3l, N-(Cyclohexylmethyl)-6-(4-((cyclohexylmethyl)amino)butoxy)benzo[d]thiazole-2-carboxamide], the inhibition at 10 µM on human H1R turned out to be 14.7 ± 8.5%; on human AChE, 16.7 ± 7.79%; at human H4R it was 49.7 ± 41%. For the same molecule, the inhibition at 1 µM on human H3R came out at 57.3 ± 12.7%. On human AChE, the IC50 was greater than 10 µM.

As to `CC(=O)N1CCN(CCCOc2ccc3nc(C(=O)N4CCN(C(C)=O)C(C)C4)sc3c2)CC1C` (centres unmarked) [Compound 4m, 1-(4-(6-(3-(4-Acetyl-3-methylpiperazin-1-yl)propoxy)benzo[d]thiazole-2-carbonyl)-2-methylpiperazin-1-yl)ethan-1-one], the inhibition at 1 µM on human H1R worked out at 27 ± 27.6%. In addition, the affinity at human H3R corresponds to a Ki of 0.4 µM. On human AChE, the IC50 was greater than 10 µM and the inhibition at 10 µM was 2.4 ± 2.06%.

`CC1CN(CCCOc2ccc3nc(C(=O)N4CCNC(C)C4)sc3c2)CCN1` (centres unmarked) [Compound 4h, (3-Methylpiperazin-1-yl)(6-(3-(3-methylpiperazin-1-yl)propoxy)benzo[d]thiazol-2-yl)methanone]: at human H1R, the inhibition at 1 µM is 18.4 ± 27%. This molecule also returned a Ki at human H3R of 0.47 µM. Besides, on human AChE, the IC50 was greater than 10 µM and the inhibition at 10 µM was found to be 8.3 ± 1.02%.

Regarding `O=C(NC1CC1)c1nc2ccc(OCCCCNC3CC3)cc2s1` [Compound 3m, N-Cyclopropyl-6-(4-(cyclopropylamino)butoxy)benzo[d]thiazole-2-carboxamide], the inhibition at 10 µM at human H1R turned out to be 27 ± 10.6%; on human AChE, 13.2 ± 8.07%; on human H4R it was 53.6 ± 11.1%. Further, the inhibition at 1 µM at human H3R came out at 67.8 ± 2.5%. In addition, on human AChE, the IC50 was greater than 10 µM.

As to `O=C(c1nc2ccc(OCCCN3CCc4ccccc4C3)cc2s1)N1CCc2ccccc2C1` [Compound 4e, (3,4-Dihydroisoquinolin-2(1H)-yl)(6-(3-(3,4-dihydroisoquinolin-2(1H)-yl)propoxy)benzo[d]thiazol-2-yl)methanone], on human H1R, the inhibition at 1 µM was found to be 9.7 ± 23%. The molecule further came in with a Ki at human H3R of 0.34 µM. For the same molecule, on human AChE, the IC50 was greater than 10 µM and the inhibition at 10 µM is 6.2 ± 3.15%.

For `COC(=O)c1nc2ccc(OCCN3CCCCC3)cc2s1` [Compound 1e, Methyl 6-(2-(piperidin-1-yl)ethoxy)benzo[d]thiazole-2-carboxylate], the inhibition at 10 µM came to 16.3 ± 41.7% at human H1R and 84 ± 4.25% at human AChE. Besides, on human H3R, the inhibition at 1 µM amounted to 54.2 ± 28.4%. This molecule yielded an IC50 at human AChE of 2.92 ± 0.37 µM.

`O=C(c1nc2ccc(OCCCN3CCN(CCO)CC3)cc2s1)N1CCN(CCO)CC1` [Compound 4i, (4-(2-Hydroxyethyl)piperazin-1-yl)(6-(3-(4-(2-hydroxyethyl)piperazin-1-yl)propoxy)benzo[d]thiazol-2-yl)methanone]: the inhibition at 1 µM at human H1R turned out to be 22.5 ± 27.4%. This molecule yielded a Ki at human H3R of 0.12 µM. At human AChE, the IC50 was greater than 10 µM and the inhibition at 10 µM turned out to be 7.3 ± 2.77%.

For the molecule `COC(=O)c1nc2ccc(OCCCN[C@@H](Cc3ccc(O)cc3)C(=O)OC)cc2s1` [Compound 2a, Methyl (S)-6-(3-((3-(4-hydroxyphenyl)-1-methoxy-1-oxopropan-2-yl)amino)propoxy)benzo[d]thiazole-2-carboxylate], the inhibition at 10 µM on human H1R is less than 0%; on human AChE, less than 0%; on human H4R, 35.5 ± 32.1%. In addition, the inhibition at 1 µM at human H3R is 54.8 ± 21.2%. In addition, on human AChE, the IC50 is greater than 10 µM.

Consider `O=C(NCC1CCCCC1)c1nc2ccc(OCCCCCNCC3CCCCC3)cc2s1` [Compound 3q, N-(Cyclohexylmethyl)-6-((5-((cyclohexylmethyl)amino)pentyl)oxy)benzo[d]thiazole-2-carboxamide], for which the inhibition at 10 µM at human H1R turned out to be 40.6 ± 8.2%; at human AChE, 22.2 ± 5.5%; on human H4R it was 49.1 ± 22.8%. The molecule further returned a Ki on human H3R greater than 3 µM. For the same molecule, on human AChE, the IC50 is greater than 10 µM.

As to `O=C(NCC1CCCCC1)c1nc2ccc(OCCNCC3CCCCC3)cc2s1` [Compound 3c, N-(Cyclohexylmethyl)-6-(2-((cyclohexylmethyl)amino)ethoxy)benzo[d]thiazole-2-carboxamide], the figures for the inhibition at 10 µM on human H1R, at human AChE and at human H4R were 5.3 ± 14.2%, less than 0% and 52.8 ± 11.8%, respectively. For the same molecule, the inhibition at 1 µM on human H3R was 31.5 ± 11.4%. In addition, the IC50 against human AChE was greater than 10 µM.

As to `O=C(NCCc1ccccc1)c1nc2ccc(OCCCNCCc3ccccc3)cc2s1` [Compound 4d, N-Phenethyl-6-(3-(phenethylamino)propoxy)benzo[d]thiazole-2-carboxamide], the inhibition at 1 µM on human H1R was found to be 10.9 ± 37.1%. The Ki on human H3R was greater than 1 µM. In addition, at human AChE, the IC50 is greater than 10 µM and the inhibition at 10 µM was 5.2 ± 2.36%.

In the case of `CC1CCN(CCCOc2ccc3nc(C(=O)N4CCC(C)CC4)sc3c2)CC1` [Compound 4l, (4-Methylpiperidin-1-yl)(6-(3-(4-methylpiperidin-1-yl)propoxy)benzo[d]thiazol-2-yl)methanone], the inhibition at 1 µM on human H1R is 26.8 ± 26.3%. The affinity on human H3R, expressed as Ki, was 0.43 µM. In addition, on human AChE, the IC50 is greater than 10 µM and the inhibition at 10 µM was found to be 8.4 ± 0.51%.

For `CC1CC(C)CN(CCCOc2ccc3nc(C(=O)N4CC(C)CC(C)C4)sc3c2)C1` (centres unmarked) [Compound 4c, (3,5-Dimethylpiperidin-1-yl)(6-(3-(3,5-dimethylpiperidin-1-yl)propoxy)benzo[d]thiazol-2-yl)methanone], on human H1R, the inhibition at 1 µM came out at 26.8 ± 31%. Also, the affinity on human H3R, expressed as Ki, was 0.34 µM. In addition, on human AChE, the IC50 was greater than 10 µM and the inhibition at 10 µM is 6.9 ± 1.67%.
